These results are taken from BindingDB's records for patent US12473263 (Icahn School Of Medicine At Mount Sinai, 2025).

For orientation: Kd means the equilibrium constant for the complex coming apart.

The target in this experiment is T1, Bromodomain-containing protein 4 [58-164] (Homo sapiens, UniProt O60885).
T1 construct: 58-164
In words: Fluorescence Anisotropy Binding Assay. The method, then: Binding affinity of the newly synthesized compounds to the BRD4 BrD1 was assessed in a fluorescence anisotropy assay using a fluorescein isothiocyanate (FITC)-labeled MS417 as an assay probe (Zhang et al. 2008 op.cit.). Competition binding was performed with a BrD protein (0.25 to 1 μM) and the fluorescent probe (80 nM), and increasing concentration of unlabeled competing ligand in a PBS buffer (pH 7.4) in total volume of 80 μL. Measurements were obtained after 1 hour incubation of the fluorescent ligand and the protein at 25° C. with Safire 2 microplate reader (Tecan). In the assay, fluorescent ligand concentration was ≤2Kd, and protein concentration was set at which 50-80% of fluorescent ligand is bound. Dissociation constant of a competing ligand was calculated with the correction to Cheng-Prussoff equation introduced by Nicolovska-Coleska and colleagues [Nikolovska-Coleska, Z. et al., Anal Biochem 332, 261-273 (2004).
(In general: Polarisation of emitted light reports the rotation of a fluorescent probe.)
Compound `Cc1ccccc1Cc1cn(C[C@H](O)c2ccc(Cl)c(Cl)c2)c2ccccc12` [US12473263, Example 4] had a Kd of 0.64 µM.

As for `N=c1n(Cc2cn(CCc3ccccc3)nn2)c2ccccc2n1CC(O)c1ccc(Cl)c(Cl)c1` (stereo unspecified) [US12473263, Example 15], the Kd turned out to be 0.354 µM.

For the compound `N=c1n(Cc2cn(Cc3cccc(F)c3)nn2)c2ccccc2n1CC(O)c1ccc(Cl)c(Cl)c1` (stereo unspecified) [US12473263, Example 11], the Kd came out at 0.548 µM.

Take `Cc1ccccc1Cn1c(=N)n(CC(O)c2ccc(Cl)c(Cl)c2)c2ccc(Cl)cc21` (stereo unspecified) [US12473263, Example 3]: the Kd was 0.503 µM.

Take `Cc1cccc(Cn2cc(Cn3c(=N)n(CC(O)c4ccc(Cl)c(Cl)c4)c4ccccc43)nn2)c1` (stereo unspecified) [US12473263, Example 8]: binding was put at a Kd of 0.556 µM.

In the case of `Cc1ccccc1Cn1c(=N)n(CC(O)c2ccc(Cl)c(Cl)c2)c2ccc(F)cc21` (stereo unspecified) [US12473263, Example 2], the Kd was found to be 0.269 µM.

The compound `N=c1n(Cc2cn(Cc3ccc(F)cc3)nn2)c2ccccc2n1CC(O)c1ccc(Cl)c(Cl)c1` (stereo unspecified) [US12473263, Example 12] yielded a Kd of 3.86 µM.

Take `Cc1ccccc1Cn1cc(Cn2c(=N)n(CC(O)c3ccc(Cl)c(Cl)c3)c3ccccc32)nn1` (stereo unspecified) [US12473263, Example 7]: binding was characterised by a dissociation constant (Kd) of 0.551 µM.

As to `N=c1n(Cc2cn(-c3ccccc3)nn2)c2ccccc2n1CC(O)c1ccc(Cl)c(Cl)c1` (stereo unspecified) [US12473263, Example 13], the Kd came to 0.065 µM.

With `N=c1n(Cc2cn(Cc3ccccc3F)nn2)c2ccccc2n1CC(O)c1ccc(Cl)c(Cl)c1` (stereo unspecified) [US12473263, Example 10], the Kd amounted to 0.371 µM.

`COc1ccc2c(c1)n(Cc1ccccc1C)c(=N)n2CC(O)c1ccc(Cl)c(Cl)c1` (stereo unspecified) [US12473263, Example 1] returned a Kd of 0.694 µM.
